Source: publication PMC8287724, “Reducing Auditory Nerve Excitability by Acute Antagonism of Ca^2+-Permeable AMPA Receptors” (Frontiers in Synaptic Neuroscience, 2021)

What was measured:
[1] = tested on: distortion product otoacoustic emissions (DPOAE); test: Distortion product otoacoustic emissions after systemic delivery; format: in vivo, guinea pig; conditions: IP 13.5 mg/kg
Protocol: As described for local delivery, cochlear output was measured similarly for systemic delivery of IEM-1460 and IEM-1925. Complete details have been previously published (Salt et al., [2013]). Briefly, acoustic tone bursts were applied in a closed sound system. The plastic extension tube of the acoustic assembly (Etymotic Research, ER-10 C) was coupled to the end of the hollow ear bar with the tube tip positioned ~1.5 mm from the tympanic membrane. Stimulus generation and data collection were performed with Tucker Davis System 3 hardware controlled by a custom written program (Microsoft Visual Basic). Stimulus waveforms were routed through a programmable Tucker Davis PA5 attenuator and HB7 headphone amplifier. Stimuli were calibrated from 0.125 to 26 kHz in 1/4 octave steps. A CAP audiogram was obtained at the beginning and end of the experiment. Up to 60 min of baseline audiometric data were obtained prior to drug delivery. Data with baseline changes >20% were excluded. A 13-level tone probe series, at selected frequencies, was repeated at 2-min intervals. Distortion product otoacoustic emissions (DPOAEs) were measured using an ER10C probe system. The two primary tone frequencies were set at 6 kHz (f1) and 7.4 kHz (f2), for a f2/f1-ratio of 1.23, with levels of 65 dB SPL (L1) and 55 dB SPL (L2). […]

GluA2-lacking AMPARs = tested on: GluA2-lacking AMPARs; design: method as in Magazanik et al., 1997; Buldakova et al., 1999; conditions: ref Magazanik et al., 1997; Buldakova et al., 1999; read-out: IC50 on cells expressing GluA2-lacking AMPARs; cited from earlier work
GluA2-containing AMPARs = tested on: GluA2-containing AMPARs; design: method as in Magazanik et al., 1997; Buldakova et al., 1999; conditions: ref Magazanik et al., 1997; Buldakova et al., 1999; cited from earlier work
[2] = tested on: cochlear afferent synapses; design: method as in Hu et al., 2020; conditions: mouse; ~2.5 days of sustained intracochlear delivery; synaptopathic noise ref Hu et al., 2020; cited from earlier work
[3] = Heart rate and blood oxygenation monitoring during systemic dosing; format: in vivo, guinea pig; conditions: IP injection: IEM-1460 13.5 mg/kg, IEM-1925 8 mg/kg; N = 4
Protocol: This study utilized 21 NIH-strain, pigmented guinea pigs weighing from 400 to 650 g, in accordance with policies and protocols approved by the Institutional Animal Care and Use Committee at Washington University in St. Louis (20180133, 20190035). Animals were anesthetized with intraperitoneal (IP) injection of 100 mg/kg sodium thiobutabarbital (Inactin, Sigma, St. Louis, MO). Once anesthetized, the fur from the head and neck was shaved and a tracheal cannula was placed. The animal was maintained on 0.8–1.2% isoflurane in oxygen using a mechanical ventilator. The ventilator's tidal volume was adjusted to maintain a 5% end-tidal CO2 which was monitored with a CapnoTrue AMP (Bluepoint Medical, Zevenaar, The Netherlands). Body temperature was maintained at 38 degrees C with a DC-powered heating blanket-rectal thermometer (Model 50-7079; Harvard Apparatus). Heart rate and oxygen saturation were monitored with a pulse oximeter (Surgivet, Waukesha, WI). The auditory bulla was exposed ventrally for placement of recording electrodes. The jugular vein was cannulated to maintain hydration with 0.5 mL per hour of Lactated Ringer's solution. […]
Systemic delivery of IEM-1925 (8 mg/kg, IP) reduced CAP amplitude to a similar extent as IEM-1460 (13.5 mg/kg, IP). […] Blood oxygenation and heart rate were monitored along with cochlear physiology during the time course of the experiment. […]

C[N+](C)(C)CCCCCNCC12CC3CC(CC(C3)C1)C2 [IEM-1460]
effect on distortion product otoacoustic emissions (DPOAEs) [1]: unaffected | IC50 (GluA2-lacking AMPARs): 1 to 3 µM | IC50 (GluA2-containing AMPARs): 500 to 1100 µM | effect on noise-induced synapse loss and ABR wave-I amplitude [2]: prevented synapse loss and loss of wave-I amplitude

NCCCCCNC1(c2ccccc2)CCCCC1 [IEM-1925]
temporary reduction in heart rate [3]: No such reduction
